Assay [1] addresses MAPK14 (murine). The assay can be described thus: Inhibition of MAPK14 Kinase Activity.
Assay [2] concerns the target MAPK14 (human) (UniProt Q16539). The assay can be described thus: Inhibition of LPS Induced TNF-alpha Release in Human PBMC.

MAPK14 (human), sequence (Q16539 whole entry, looked up): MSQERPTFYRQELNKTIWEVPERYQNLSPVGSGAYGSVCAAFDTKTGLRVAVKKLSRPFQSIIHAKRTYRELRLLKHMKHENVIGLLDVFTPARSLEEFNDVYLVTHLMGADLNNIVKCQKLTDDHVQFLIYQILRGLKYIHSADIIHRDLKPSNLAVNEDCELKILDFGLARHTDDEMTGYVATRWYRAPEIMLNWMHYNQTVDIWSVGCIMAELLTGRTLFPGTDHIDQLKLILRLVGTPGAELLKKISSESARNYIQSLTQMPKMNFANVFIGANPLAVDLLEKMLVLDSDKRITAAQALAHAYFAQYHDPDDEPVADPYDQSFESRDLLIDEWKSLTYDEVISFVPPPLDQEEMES

`CN1CCC(O)(c2nc(-c3ccc(F)cc3)c(-c3ccncc3)[nH]2)CC1`: the IC50 (in general, the concentration that inhibits the measured activity by half) in assay [1] was found to be 90 nM. Turning to `CN1CCC(O)(c2nc(-c3ccc(F)cc3)c(-c3ccncc3)s2)CC1`, the IC50 in assay [1] stood at 450 nM. In assay [1], `CN1CCC(O)(c2nc(-c3ccc(F)cc3)c(-c3ccncc3)o2)CC1` registered a half-inhibitory concentration (IC50) of 350 nM. `C[C@H](Nc1cc(-c2sc(C3CCNCC3)nc2-c2ccc(F)cc2)ccn1)c1ccccc1` came in with an IC50 in assay [1] of 4 nM.

On to `Fc1ccc(-c2nc(C3CCNCC3)oc2-c2ccnc(NC3CCCCC3)n2)cc1`, for which the IC50 amounted to 9 nM in assay [2] and 11 nM in assay [1]. As to `C[C@@H](Nc1nccc(-n2c(-c3ccc(F)cc3)nc3nc(N4CCN(C)CC4)ccc32)n1)c1ccccc1`, the IC50 in assay [2] turned out to be 1 nM; in assay [1], 6 nM.

Consider `Fc1ccc(-c2nc(C3CCNCC3)oc2-c2ccnc(NC3CCCCC3)c2)cc1`, for which the IC50 in assay [2] was 0.2 nM; in assay [1], 15 nM.
